{"source": "patent EP3272348A1", "about": "“PHARMACEUTICAL COMPOSITION COMPRISING IDELALISIB” (LEK Pharmaceuticals d.d., priority 2016, dated 2018)", "origin": "cited, not measured here", "key": {"[1]": {"experiment": "not given", "remark": "listed apart in the source"}}, "note": "Like-named read-outs stand apart in the source and are kept apart here."}
{"smiles": "CC[C@H](Nc1ncnc2[nH]cnc12)c1nc2cccc(F)c2c(=O)n1-c1ccccc1", "note": "[Crystalline idelalisib, (S)-2-(I-(9H-purin-6-ylamino)propyl)-5-fluoro-3-phenyl-quinazolin-4(3H)-one]", "values": [{"measurement": "solubility", "setting": "pH 1.2", "result": "soluble"}, {"measurement": "solubility", "setting": "pH 7", "result": "not soluble"}, {"measurement": "permeability", "setting": "[1]", "result": "high permeability"}]}
